# Source: article PMC6556873, “Rapid Covalent-Probe Discovery by Electrophile-Fragment Screening” (Journal of the American Chemical Society, 2019)
# Like-named read-outs stand apart in the source and are kept apart here.
# Assays:
# BSA = target: T1, BSA (Bos taurus, UniProt P02769); parameters: Intact protein LC/MS covalent labelling, fragments in pools of five, 200 uM each, 4 °C; conditions: 24 h, 4 °C, pool of five; 200 µM; covalent
# T1 construct: gene ALB
# Method: (§1) Incubations were performed at 200 μM for each compound and 2 μM of protein (10 μM for BSA) for 24 h at 4 °C with moderate shaking. Incubation buffers varied among proteins (PBS pH 7.4 for QSOX1 and BSA; 10 mM HEPES pH 7.5, 0.3 M NaCl, 0.5 mM TCEP for PCAF, UPS8, and NUDT7; […]; 10 mM Na2HPO4 pH 7.5 100 mM NaCl 5 mM β-mercaptoethanol for NV3CP; 20 mM Na phosphate pH 7.5 for NNMT; […]. The reaction was stopped by quenching with formic acid, 0.4% final concentration. Each protein was incubated with the electrophilic library in pools of five compounds per well. The pool’s composition maximized the difference in mass between fragments in the same well. Incubations were performed with each fragment at 200 μM, for 24 h at 4 °C, to allow the screening of proteins that are not stable for long time periods at higher temperatures. Following incubation, we used intact protein [compound left out] chromatography/mass spectrometry (LC/MS) to identify the fragments and quantify their labeling (Figure 3A). […] There was good agreement between the percent of labeling of NUDT7 by 100 random individual compounds and that obtained in pools of five (R^2=0.78; Figure S6 and Data set 2 in the Supporting Information).
# NUDT7 = target: T2, NUDT7 (Homo sapiens, UniProt P0C024); parameters: Intact protein LC/MS covalent labelling, fragments in pools of five, 200 uM each, 4 °C; conditions: 24 h, 4 °C, pool of five; 200 µM; covalent
# T2 construct: residues 14-235, E. coli, pNIC28-Bsa4, N-terminal His6 tag removed by TEV, construct 26672 Da
# Method: as §1
# OTUB2 (OTUB2A) = target: T3, OTUB2 (OTUB2A) (Homo sapiens, UniProt Q96DC9); parameters: Intact protein LC/MS covalent labelling, fragments in pools of five, 200 uM each, 4 °C; conditions: 24 h, 4 °C, pool of five; 200 µM; covalent
# T3 construct: full length residues 1-234, E. coli BL21(DE3)-R3, His tag removed by TEV, construct 27312 Da
# T3 sequence (Q96DC9 1-234): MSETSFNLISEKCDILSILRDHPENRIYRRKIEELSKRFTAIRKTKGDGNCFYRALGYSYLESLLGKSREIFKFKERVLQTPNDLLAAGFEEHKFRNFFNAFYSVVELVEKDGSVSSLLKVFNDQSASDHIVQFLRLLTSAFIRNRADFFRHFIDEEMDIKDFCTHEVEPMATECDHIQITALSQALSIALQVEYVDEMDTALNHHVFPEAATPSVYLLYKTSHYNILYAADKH
# Method: as §1
# PCAF = target: T4, PCAF (Homo sapiens, UniProt Q92831); parameters: Intact protein LC/MS covalent labelling, fragments in pools of five, 200 uM each, 4 °C; conditions: 24 h, 4 °C, pool of five; 200 µM; covalent
# T4 construct: gene KAT2B
# Method: as §1
# in vitro [1] = experiment: in vitro; parameters: species or system CCD841, HEK293; conditions: human, hb2 cells, read-out: HB-2 Cells Viability (%)
# in vitro [2] = experiment: in vitro; parameters: species or system HB2, HEK293; conditions: human, ccd841 cells
# in vitro [3] = experiment: in vitro; parameters: species or system HB2, CCD841; conditions: human, hek293 cells
# T1 sequence (P02769 whole entry, the tested form may be a part): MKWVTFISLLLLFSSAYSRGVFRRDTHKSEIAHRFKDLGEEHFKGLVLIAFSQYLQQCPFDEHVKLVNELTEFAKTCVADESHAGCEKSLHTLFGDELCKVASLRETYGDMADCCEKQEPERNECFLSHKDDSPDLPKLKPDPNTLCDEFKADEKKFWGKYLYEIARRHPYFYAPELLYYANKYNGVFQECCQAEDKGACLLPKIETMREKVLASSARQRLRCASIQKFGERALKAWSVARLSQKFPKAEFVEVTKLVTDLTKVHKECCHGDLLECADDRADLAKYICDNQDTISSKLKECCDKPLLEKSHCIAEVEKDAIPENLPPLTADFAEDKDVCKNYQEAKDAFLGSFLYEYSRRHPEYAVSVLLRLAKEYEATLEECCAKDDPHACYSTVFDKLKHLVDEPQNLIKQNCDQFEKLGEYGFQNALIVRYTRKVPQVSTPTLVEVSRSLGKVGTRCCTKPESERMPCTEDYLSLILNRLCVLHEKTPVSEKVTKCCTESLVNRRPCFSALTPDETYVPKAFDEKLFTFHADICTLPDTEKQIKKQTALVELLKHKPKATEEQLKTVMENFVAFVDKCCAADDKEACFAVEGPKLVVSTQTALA
# T2 sequence (P0C024 14-235): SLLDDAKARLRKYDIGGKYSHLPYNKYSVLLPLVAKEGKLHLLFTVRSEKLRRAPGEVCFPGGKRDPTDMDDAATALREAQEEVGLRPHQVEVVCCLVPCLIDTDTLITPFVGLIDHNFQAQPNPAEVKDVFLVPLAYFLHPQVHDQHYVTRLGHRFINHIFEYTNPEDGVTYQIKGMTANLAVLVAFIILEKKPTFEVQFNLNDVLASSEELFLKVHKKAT
# T4 sequence (Q92831 whole entry, the tested form may be a part): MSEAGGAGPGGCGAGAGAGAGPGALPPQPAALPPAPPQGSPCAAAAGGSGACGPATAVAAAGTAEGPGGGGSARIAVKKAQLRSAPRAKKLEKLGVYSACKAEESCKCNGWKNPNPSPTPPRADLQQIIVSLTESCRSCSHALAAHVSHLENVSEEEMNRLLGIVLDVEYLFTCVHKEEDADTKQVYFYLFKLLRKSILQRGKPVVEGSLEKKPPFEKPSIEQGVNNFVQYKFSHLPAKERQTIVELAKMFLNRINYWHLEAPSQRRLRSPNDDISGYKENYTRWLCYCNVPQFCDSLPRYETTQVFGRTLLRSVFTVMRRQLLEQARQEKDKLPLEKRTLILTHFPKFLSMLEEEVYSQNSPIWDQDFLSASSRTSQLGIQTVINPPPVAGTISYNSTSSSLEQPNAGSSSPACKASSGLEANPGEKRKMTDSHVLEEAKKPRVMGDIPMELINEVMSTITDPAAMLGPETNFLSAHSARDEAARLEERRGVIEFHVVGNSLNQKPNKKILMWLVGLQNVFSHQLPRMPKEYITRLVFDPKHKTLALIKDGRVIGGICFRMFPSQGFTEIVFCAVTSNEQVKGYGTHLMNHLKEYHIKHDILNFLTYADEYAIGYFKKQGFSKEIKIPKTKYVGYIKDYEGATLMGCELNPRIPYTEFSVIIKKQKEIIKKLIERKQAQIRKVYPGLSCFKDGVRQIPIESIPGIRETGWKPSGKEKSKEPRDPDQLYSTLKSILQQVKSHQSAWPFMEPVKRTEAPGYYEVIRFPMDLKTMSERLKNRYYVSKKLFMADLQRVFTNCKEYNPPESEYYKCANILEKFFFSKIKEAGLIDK
smiles,measurement,setting,value
O=C(CCl)N1CCCc2cc([N+](=O)[O-])ccc21 [PCM-0102188],BSA,BSA,0
same,NUDT7,NUDT7,0.09
same,OTUB2,OTUB2 (OTUB2A),0.12
same,PCAF,PCAF,0
same,"viability at 48 h, 10 µM",in vitro [1],19.6%
same,"viability at 48 h, 10 µM",in vitro [2],32.3%
same,"viability at 48 h, 10 µM",in vitro [3],46.6%
CC(NC(=O)CCl)c1cccc(Cl)c1 (stereo not shown) [PCM-0102190],BSA,BSA,0
same,NUDT7,NUDT7,0.42
same,OTUB2,OTUB2 (OTUB2A),0.37
same,PCAF,PCAF,0
same,"viability at 48 h, 10 µM",in vitro [1],69.6%
same,"viability at 48 h, 10 µM",in vitro [2],73.2%
same,"viability at 48 h, 10 µM",in vitro [3],49.3%
C=CC(=O)Nc1ccc(Br)cc1 [PCM-0102191],BSA,BSA,0
same,NUDT7,NUDT7,0.09
same,OTUB2,OTUB2 (OTUB2A),0
same,PCAF,PCAF,0
same,"viability at 48 h, 10 µM",in vitro [1],91.3%
same,"viability at 48 h, 10 µM",in vitro [2],88.9%
same,"viability at 48 h, 10 µM",in vitro [3],65.6%
O=C(CCl)NCc1ccc(F)cc1 [PCM-0102192],BSA,BSA,0
same,NUDT7,NUDT7,0
same,OTUB2,OTUB2 (OTUB2A),0.31
same,PCAF,PCAF,0
same,"viability at 48 h, 10 µM",in vitro [1],86.9%
same,"viability at 48 h, 10 µM",in vitro [2],76.1%
same,"viability at 48 h, 10 µM",in vitro [3],77.8%
O=C(CCl)N1CCN(S(=O)(=O)c2ccc3c(c2)CCC3)CC1 [PCM-0102193],BSA,BSA,0
same,NUDT7,NUDT7,0
same,OTUB2,OTUB2 (OTUB2A),0
same,PCAF,PCAF,0
same,"viability at 48 h, 10 µM",in vitro [1],2.7%
same,"viability at 48 h, 10 µM",in vitro [2],20.9%
same,"viability at 48 h, 10 µM",in vitro [3],2.8%
O=C(CCl)Nc1ccc2c(c1)C(=O)c1ccccc1C2=O [PCM-0102194],BSA,BSA,0
same,NUDT7,NUDT7,0
same,OTUB2,OTUB2 (OTUB2A),0
same,PCAF,PCAF,0
same,"viability at 48 h, 10 µM",in vitro [1],1.4%
same,"viability at 48 h, 10 µM",in vitro [2],13.7%
same,"viability at 48 h, 10 µM",in vitro [3],0.7%
O=C(CCl)NC(=O)c1ccco1 [PCM-0102195],BSA,BSA,0
same,NUDT7,NUDT7,0
same,OTUB2,OTUB2 (OTUB2A),0
same,PCAF,PCAF,0
same,"viability at 48 h, 10 µM",in vitro [1],98%
same,"viability at 48 h, 10 µM",in vitro [2],109%
same,"viability at 48 h, 10 µM",in vitro [3],87.3%
Cc1ccc(NC(=O)CCl)c(Br)c1 [PCM-0102196],BSA,BSA,0
same,NUDT7,NUDT7,0.2
same,OTUB2,OTUB2 (OTUB2A),0.14
same,PCAF,PCAF,0
same,"viability at 48 h, 10 µM",in vitro [1],49.2%
same,"viability at 48 h, 10 µM",in vitro [2],87.6%
same,"viability at 48 h, 10 µM",in vitro [3],45.5%
Cc1cc(NC(=O)CCl)on1 [PCM-0102197],BSA,BSA,0
same,NUDT7,NUDT7,0
same,OTUB2,OTUB2 (OTUB2A),0
same,PCAF,PCAF,0
same,"viability at 48 h, 10 µM",in vitro [1],74.3%
same,"viability at 48 h, 10 µM",in vitro [2],87.9%
same,"viability at 48 h, 10 µM",in vitro [3],68.5%
COC(=O)c1c(NC(=O)CCl)sc2c1CCCCC2 [PCM-0102200],BSA,BSA,0
same,NUDT7,NUDT7,0.11
same,OTUB2,OTUB2 (OTUB2A),0
same,PCAF,PCAF,0
same,"viability at 48 h, 10 µM",in vitro [1],49.5%
same,"viability at 48 h, 10 µM",in vitro [2],80.8%
same,"viability at 48 h, 10 µM",in vitro [3],21.8%
O=C(CCl)N1CCN(S(=O)(=O)c2c(F)cccc2F)CC1 [PCM-0102201],BSA,BSA,0
same,NUDT7,NUDT7,0
same,OTUB2,OTUB2 (OTUB2A),0
same,PCAF,PCAF,0
same,"viability at 48 h, 10 µM",in vitro [1],9.5%
same,"viability at 48 h, 10 µM",in vitro [2],57.6%
same,"viability at 48 h, 10 µM",in vitro [3],11.1%
Cc1sc(NC(=O)CCl)c(C#N)c1C [PCM-0102202],BSA,BSA,0
same,NUDT7,NUDT7,0
same,OTUB2,OTUB2 (OTUB2A),0
same,PCAF,PCAF,0
same,"viability at 48 h, 10 µM",in vitro [1],32.8%
same,"viability at 48 h, 10 µM",in vitro [2],55.2%
same,"viability at 48 h, 10 µM",in vitro [3],14.4%
NC(=O)C1CCCCN1C(=O)CCl (stereo not shown) [PCM-0102203],BSA,BSA,0
same,NUDT7,NUDT7,0
same,OTUB2,OTUB2 (OTUB2A),0
same,PCAF,PCAF,0
same,"viability at 48 h, 10 µM",in vitro [1],79.7%
same,"viability at 48 h, 10 µM",in vitro [2],75.3%
same,"viability at 48 h, 10 µM",in vitro [3],50.7%
COC(=O)c1ccc(NC(=O)CCl)cc1 [PCM-0102204],BSA,BSA,0
same,NUDT7,NUDT7,0
same,OTUB2,OTUB2 (OTUB2A),0
same,PCAF,PCAF,0
same,"viability at 48 h, 10 µM",in vitro [1],22.5%
same,"viability at 48 h, 10 µM",in vitro [2],56.2%
same,"viability at 48 h, 10 µM",in vitro [3],3.8%
CCC1(C)NC(=O)N(NC(=O)CCl)C1=O (stereo not shown) [PCM-0102205],BSA,BSA,0
same,NUDT7,NUDT7,0
same,OTUB2,OTUB2 (OTUB2A),0
same,PCAF,PCAF,0
same,"viability at 48 h, 10 µM",in vitro [1],96.9%
same,"viability at 48 h, 10 µM",in vitro [2],85.3%
same,"viability at 48 h, 10 µM",in vitro [3],88%
Cc1nc(NC(=O)CCl)c(Cl)cc1Cl [PCM-0102206],BSA,BSA,0
same,NUDT7,NUDT7,0
same,OTUB2,OTUB2 (OTUB2A),0
same,PCAF,PCAF,0
same,"viability at 48 h, 10 µM",in vitro [1],110%
same,"viability at 48 h, 10 µM",in vitro [2],105%
same,"viability at 48 h, 10 µM",in vitro [3],101%
CC1Cc2cc(S(N)(=O)=O)ccc2N1C(=O)CCl (stereo not shown) [PCM-0102207],BSA,BSA,0
same,NUDT7,NUDT7,0.07
same,OTUB2,OTUB2 (OTUB2A),0
same,PCAF,PCAF,0
same,"viability at 48 h, 10 µM",in vitro [1],58.7%
same,"viability at 48 h, 10 µM",in vitro [2],34.2%
same,"viability at 48 h, 10 µM",in vitro [3],16.5%
Cc1ccc(NC(=O)CCl)cc1Cl [PCM-0102208],BSA,BSA,0
same,NUDT7,NUDT7,0.19
same,OTUB2,OTUB2 (OTUB2A),0.46
same,PCAF,PCAF,0
same,"viability at 48 h, 10 µM",in vitro [1],3.7%
same,"viability at 48 h, 10 µM",in vitro [2],37.4%
same,"viability at 48 h, 10 µM",in vitro [3],1.2%
O=C(CCl)Nc1cc2c(cc1Cl)OCO2 [PCM-0102209],BSA,BSA,0
same,NUDT7,NUDT7,0.13
same,OTUB2,OTUB2 (OTUB2A),0.27
same,PCAF,PCAF,0
same,"viability at 48 h, 10 µM",in vitro [1],58.1%
same,"viability at 48 h, 10 µM",in vitro [2],70.7%
same,"viability at 48 h, 10 µM",in vitro [3],47.1%
COc1cc(Cl)c(C)cc1NC(=O)CCl [PCM-0102210],BSA,BSA,0
same,NUDT7,NUDT7,0
same,OTUB2,OTUB2 (OTUB2A),0.25
same,PCAF,PCAF,0
same,"viability at 48 h, 10 µM",in vitro [1],8.5%
same,"viability at 48 h, 10 µM",in vitro [2],64.1%
same,"viability at 48 h, 10 µM",in vitro [3],5.5%
Cc1nnc(NC(=O)CCl)s1 [PCM-0102211],BSA,BSA,0
same,NUDT7,NUDT7,0
same,OTUB2,OTUB2 (OTUB2A),0
same,PCAF,PCAF,0
same,"viability at 48 h, 10 µM",in vitro [1],99.8%
same,"viability at 48 h, 10 µM",in vitro [2],86.7%
same,"viability at 48 h, 10 µM",in vitro [3],90.5%
CC(NC(=O)CCl)c1ccc(Cl)cc1Cl (stereo not shown) [PCM-0102212],BSA,BSA,0
same,NUDT7,NUDT7,0.54
same,OTUB2,OTUB2 (OTUB2A),0.18
same,PCAF,PCAF,0
same,"viability at 48 h, 10 µM",in vitro [1],37.4%
same,"viability at 48 h, 10 µM",in vitro [2],58.2%
same,"viability at 48 h, 10 µM",in vitro [3],37.3%
